Measurements published in patent publication US11584727B2, “2-thioxothiazolidin-4-one derivatives active as transthyretin ligands and uses thereof” (BSIM Therapeutics, S.A., priority 2014, dated 2023).

Experiments:
[1] = target: T1, wild type transthyretin (WT-TTR) (Homo sapiens, UniProt P02766); test: WT-TTR amyloid fibril formation assay (turbidimetry, acid-induced); assay type: biochemical; conditions: pH 4.4, 72 hours; for Fibril Formation (%): WT-TTR 3.6 μM, 1:1 TTR-compound stoichiometry, 37° C., normalized to no-compound control (100%); for IC50: WT-TTR fixed at 3.6 μM, ten compound concentrations
T1 construct: made in house; host or cells: E. coli BL21 (DE3), pET23a plasmid
Method: (§1) The first set of evaluations is based on a fast, stagnant fibril formation assay that is used for the early screening of compounds, be they virtual screening hits or newly synthesized analogues. In this assay, a solution of the compound under test at 1.8, 3.6 or 7.2 μM is added to a solution of TTR at 3.6 μM, so that there is enough compound to bind to either one or both of TTR's binding sites. The pH of the resulting solution is then lowered to 4.4 to promote amyloidogenesis. The process of amyloid fibril formation over time is assessed by turbidimetry measurements at three different wavelengths (405, 450 and 490 nm, or at 550, 600 and 650 nm when the compound absorbs light at the previous wavelengths), using a spectrophotometer endowed with a BioTek microplate reader. The extent of fibril formation of each mixture is determined by normalizing a sample with the protein (TTR), in absence of compounds, which, at the end of 72 hours, represents 100% of amyloid fibril formation. In each experiment, each compound concentration is tested in triplicate. For each compound concentration and incubation time, the arithmetic mean of the triplicate experiments is calculated, as well as the arithmetic mean of the three measured wavelengths. High activity can be defined as a percentage of fibril formation below 10% at compound concentration 7.2 μM (TTR:compound stoichiometry 1:2) and below 40% at 3.6 μM (TTR:compound stoichiometry 1:1).
The in vitro activity of the compounds was assessed through a biochemical assay based on turbidimetry measurements, in which fibril formation is induced by acidification of the solution to pH 4.4 after incubation with the hit compound to be tested. The amount of amyloid fibrils formed is then monitored throughout 72 hours. Further details on this assay are provided in the “Evaluation of amyloid inhibition in vitro” subsection in “Materials and Methods”.
Experimental evaluation of the in vitro activity of virtual screening hits against amyloid fibril formation by TTR was carried out using a biochemical assay based on turbidimetry measurements. In this assay, fibril formation is induced by acidification of the solution to pH 4.4 after incubation with the hit compound to be tested. The amount of amyloid fibrils formed is monitored over 72 hours. Further details on the assay are provided in the “Evaluation of amyloid inhibition in vitro” subsection below.
(§2) Purchased virtual screening hits and all synthesized (optimization) derivatives were dissolved in DMSO to a final concentration of 10.8 mM to provide a primary stock solution. Several secondary stock solutions were prepared in DMSO by dilution of the primary stock solution and the concentrations were chosen depending on the effectiveness of the compound in inhibiting the TTR amyloid fibril formation.
(§3) The fibril formation assay was adapted to run in a high-throughput screening mode. For this purpose, 96-well microplates were used with a final assay volume of 100 μL.
(§4) One microLitre (μL) of different compound secondary stock solutions was added to 50 μL of a 7.2 μM wild type TTR (WT-TTR) or Val122Ile-TTR (V122I-TTR) solutions in 10 miliMolar (mM) sodium phosphate buffer, 100 mM KCl and 1 mM EDTA, pH 7.2, previously dialyzed against the same buffer solution. After 30 minutes of incubation at room temperature, the pH of the mixture was lowered to 4.4 with 49 μL of 200 mM acetate buffer, 100 mM KCl and 1 mM EDTA, pH 4.3.
(§5) The mixtures were incubated at 37° C. during 72 hours. Turbidity at 405 nm, 450 nm and 490 nm (or at 550, 600 and 650 nm when the test compound absorbs light at the previous wavelengths) was measured over time (0, 17, 24, 41, 48, 65 and 72 hours) using a BioTek Microplate Spectrophotometer to evaluate the extent of fibril formation. Immediately before the turbidity measurements, the mixtures were gently shacked during 1 minute to homogenize well and not damage the formed amyloid aggregates and fibrils.

[2] = target: Val122Ile transthyretin (V122I-TTR) (Homo sapiens, UniProt P02766, V142I); test: V122I-TTR amyloid fibril formation assay (turbidimetry, acid-induced); assay type: biochemical; conditions: pH 4.4, 72 hours; for Fibril Formation (%): V122I-TTR 3.6 μM, 37° C.; for IC50: V122I-TTR fixed at 3.6 μM, ten compound concentrations
Method: as §1, §2, §3, §4
as §5, with “fibrils. The final turbidity was calculated as an average of the three wavelengths measured.” for “fibrils.”
In addition, control samples containing TTR with no inhibitor and 1% DMSO, as well as inhibitor in absence of TTR were tested and analyzed.
The extent of amyloid fibril formation data was normalized to TTR in the absence of inhibitor, assigned to be 100% fibril formation (or 0% amyloid inhibition) at the end of the experiment.
The extent of amyloid fibril formation throughout 72 hours was determined as described in the “Evaluation of amyloid inhibition in vitro” subsection above.
IC50 values were calculated from the inhibition curves obtained by fitting the values by a nonlinear curve method using the OriginPro7 (OriginLab Corporation, USA).

[3] = HepG2 cell viability, resazurin reduction assay; assay type: cell-based; conditions: human, HepG2 hepatoma cells, approximately 72 hours incubation, read-out: inhibitory dose (ID50), cell viability
Excerpt: Cell viability of HepG2 hepatoma cells was quantified in order to assess the toxicity of the compounds at increasing concentrations. The used assay is described in detail in the “Experimental Evaluation of Cytotoxicity of Compounds using Cell-based Assays” section in “Materials and Methods”. This is a relevant assessment not just to discard potential concerns of liver damage (which is a problem reported for many drugs) but also because of the long-term nature of the treatments that patients suffering from TTR-mediated amyloidoses need to undertake.
Adherent human hepatoma cells HepG2 were cultured in DMEM (Dulbecco's Modified Eagle's Medium) with 10% fetal bovine serum (FBS), 100 U/mL penicillin, […] streptomycin, and 1 mM sodium pyruvate. The cells were grown in 75 cm^2 culture flasks at 37° C., in an atmosphere of 5% CO2, and subcultured twice a week using a trypsin-EDTA solution.
Upon 3 to 4 days of growth and reaching approximately 90% confluence, HepG2 cells were plated in 96-well microplates with cell density of 12×10^3 cells/well and in a volume of 100 μL per well.
The compounds are dissolved in DMSO and subsequently diluted in DMEM (in 9 intermediate […] concentrations). After adhesion of HepG2 cells to the microplates, […] 100 μL of each solution of intermediate compound concentration were added to each well (in quadruplicate). Positive controls were done with 10 wells containing only cells; solvent controls resulted from the analysis of the three highest DMSO concentrations tested and were carried out in triplicate.
After addition of the compounds to the cells, the microplates were incubated for approximately 72 hours at 37° C. in an atmosphere of 5% CO2 until the cell viability assay was performed.
The cell viability of HepG2 cells in the presence of test compounds was assessed by the resazurin reduction assay. Resazurin is a redox indicator that is converted into resorufin through reduction reactions of metabolically active cells. In the oxidized form it presents a purplish blue color, while the reduced form presents a purple-pink color.
A stock solution of 0.01% resazurin in PBS is diluted 1:10 in incomplete RPMI 1640 cell medium (without addition of antibiotics and FBS). After washing the cells with 200 μL PBS containing Ca^2+ and Mg^2+, 200 μL of resazurin 0.001% are added to the wells. Control runs with incomplete RPMI 1640 medium only and (without cells) are done in triplicate. […]
To quantify the reduction of resazurin to resorufin, microplate absorbance readings were taken at two wavelengths, 540 nm (reduced form) and 630 nm (oxidized form), in a Biotek spectrophotometer microplate reader. The percentage of viable cells at each compound concentration is determined using the formula: […]

| Fibril Formation (%) [1] [%] | IC50 [1] [µM] | Fibril Formation (%) [2] [%] | IC50 [2] [µM] | melting point [°C] | inhibitory activity against TTR amyloid fibril formation compared with reference compounds (in words) ([1]; TTR 3.6 μM) | Compound | IC50 at 72 h [3] [µM] |
| --- | --- | --- | --- | --- | --- | --- | --- |
| 17 | 1.62 ± 0.13 | 28 | 2.32 | 272 to 273 | – | O=C(O)CN1C(=O)/C(=C/c2cc(Cl)cc(Cl)c2)SC1=S [AT50-A05, (Z)-3-hydroxycarbonylmethyl-5-(3′,5′-dichlorophenylmethylidene)-2-thioxothiazolidin-4-one] | – |
| 28 | 1.81 ± 0.4 | – | – | 221 to 222 | – | O=C(O)CN1C(=O)/C(=C/c2cc(F)c(O)c(F)c2)SC1=S [AT50-A06, (Z)-3-hydroxycarbonylmethyl-5-(3′,5′-difluoro-4′-hydroxyphenylmethylidene)-2-thioxothiazolidin-4-one] | > 400 |
| 44 | 2.88 ± 0.24 | 91 | 7.8 | 225 to 227 | – | O=C(O)CN1C(=O)/C(=C/c2cc(F)cc(F)c2)SC1=S [AT50-A12, (Z)-3-hydroxycarbonylmethyl-5-(3′,5′-difluorophenylmethylidene)-2-thioxothiazolidin-4-one] | – |
| 27 | 2.37 ± 0.47 | 51 | 3.16 | 261 to 263 | – | Cc1cc(/C=C2\SC(=S)N(CC(=O)O)C2=O)cc(C)c1O [AT50-A17, (Z)-3-hydroxycarbonylmethyl-5-(4′-hydroxy-3′,5′-dimethylphenylmethylidene)-2-thioxothiazolidin-4-one] | – |
| 33 | 2.45 ± 0.35 | 48 | 3.19 | 207 to 209 | – | O=C(O)CCCN1C(=O)/C(=C/c2cc(F)c(O)c(F)c2)SC1=S [AT50-C09, (Z)-5-(3′,5′-difluoro-4′-hydroxyphenylmethylidene)-3-(3′-hydroxycarbonylpropyl)-2-thioxothiazolidin-4-one] | – |
| 27 | 1.87 ± 0.16 | 37 | 2.46 | 247 to 249 | – | O=C(O)CCCN1C(=O)/C(=C/c2cc(Cl)c(O)c(Cl)c2)SC1=S [AT50-C10, (Z)-5-(3′,5′-dichloro-4′-hydroxyphenylmethylidene)-3-(3′-hydroxycarbonylpropyl)-2-thioxothiazolidin-4-one] | – |
| 26 | 2.43 ± 1.25 | 66 | 4.52 | 250 to 252 | – | Cc1cc(/C=C2\SC(=S)N(CCCC(=O)O)C2=O)cc(C)c1O [AT50-C11, (Z)-5-(4′-hydroxy-3′,5′-dimethylphenylmethylidene)-3-(3′-hydroxycarbonylpropyl)-2-thioxothiazolidin-4-one] | – |
| 32 | 2.31 ± 0.45 | 36 | 2.6 | 216 to 217 | – | O=C(O)CCN1C(=O)/C(=C/c2cc(F)c(O)c(F)c2)SC1=S [AT50-C13, (Z)-5-(3′,5′-difluoro-4′-hydroxyphenylmethylidene)-3-(2′-hydroxycarbonylethyl)-2-thioxothiazolidin-4-one] | – |
| 26 | 1.95 ± 0.26 | 55 | 4.37 | 245 to 247 | – | O=C(O)CCN1C(=O)/C(=C/c2cc(Cl)cc(Cl)c2)SC1=S [AT50-C14, (Z)-3-(2′-hydroxycarbonylethyl)-5-(3′,5′-dichlorophenylmethylidene)-2-thioxothiazolidin-4-one] | – |
| 7 | 1.03 ± 0.1 | 17 | 1.62 | 259 to 260 | superior to that of 2OH-PCB80 | O=C(O)CCN1C(=O)/C(=C/c2cc(Cl)c(O)c(Cl)c2)SC1=S [AT50-C15, (Z)-3-(2′-hydroxycarbonylethyl)-5-(3′,5′-dichloro-4′-hydroxyphenylmethylidene)-2-thioxothiazolidin-4-one] | – |
| 24 | 2.29 ± 0.13 | 41 | 2.71 | 253 to 254 | – | Cc1cc(/C=C2\SC(=S)N(CCC(=O)O)C2=O)cc(C)c1O [AT50-C16, (Z)-3-(2′-hydroxycarbonylethyl)-5-(4′-hydroxy-3′,5′-dimethylphenylmethylidene)-2-thioxothiazolidin-4-one] | – |
